Results: US10329324B2 (viDA Therapeutics Inc., priority 2013, dated 2019)
Where two headings read alike, the source gives them in different places.

Legend:
[1] = target: T1, human Granzyme B (hGzmB) (Homo sapiens, UniProt P10144); experiment: Human Granzyme B enzymatic inhibition assay (fluorogenic, kinetic); type: biochemical; conditions: activity codes, Table 7; read-out: IC50 Activity Range
T1 construct: purchased Froelich Lab, Northshore University Health Systems Research Institute, Evanston, Ill., USA
T1 sequence (P10144 21-247): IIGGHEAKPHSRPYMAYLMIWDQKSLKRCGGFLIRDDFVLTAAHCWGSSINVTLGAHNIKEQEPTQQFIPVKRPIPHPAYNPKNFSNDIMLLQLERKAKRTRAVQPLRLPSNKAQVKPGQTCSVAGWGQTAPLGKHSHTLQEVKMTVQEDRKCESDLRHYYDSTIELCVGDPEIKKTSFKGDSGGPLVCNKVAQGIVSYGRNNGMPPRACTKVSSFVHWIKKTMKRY
How it was run: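 Human Granzyme B preincubated with compound for 30 min total (5 min shaking, 20 min bench, then reaction temperature). Fluorogenic substrate added and read kinetically, 25 cycles at 1-min intervals. Percent inhibition at one or two concentrations or 8–12-point 3-fold dose response from 20 uM, replicates, with IC50 by non-linear regression.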

[2] = Kinetic solubility determination in PBS; type: physicochemical; conditions: phosphate buffered saline (PBS 1×), 21 °C, pH 7.4, aqueous buffer, kinetic from dmso stock, PBS 1X pH 7.4, 2.0% DMSO, 24 hour incubation at ambient temperature
How it was run: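 DMSO stocks were diluted into PBS (1×) pH 7.4 to 2.0% final DMSO and a maximum theoretical concentration of typically 200 μM. After 24 hour incubation at ambient temperature (20.5-21.7° C.), samples were vacuum filtered. The filtrate was quantified by chemiluminescent nitrogen detection against a nitrogen calibration curve, with background-corrected values given in μM and μg/mL.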

[3] = target: GzmB (Homo sapiens, UniProt P10144); experiment: Inhibition of fibronectin cleavage by GzmB; type: biochemical; conditions: 20 nM granzyme B, labeled fibronectin; for inhibition at 0.62 µM: 0.62 uM inhibitor, read-out: Percent Inhibition at Inhibitor Concentration 0.62 uM; for inhibition at 5.56 µM: 5.56 uM inhibitor, read-out: Percent Inhibition at Inhibitor Concentration 5.56 uM; for inhibition at 50 µM: 50 uM inhibitor, read-out: Percent Inhibition at Inhibitor Concentration 50 uM
Sequence of GzmB (P10144 21-247): as above
Protocol: Black, 96 well high-binding assay plates (Griener Bio-one) were treated overnight at 4° C. with 40 uL of 8 ug/mL Hilyte Fluor 488 labeled Fibronectin (Cytoskeleton, Inc). After fibronectin coating, plates were washed 3 times in buffer (20 mM Tris-HCl, pH 7.4, 20 mM NaCl) then once with granzyme B assay buffer (50 mM HEPES, pH 7.5, 0.1% CHAPS). After washing, 50 uL of granzyme B assay buffer was added to each fibronectin-coated well. In a separate non-binding 96 well assay plate 5 uL of 20× inhibitor serial dilution stocks were added to 45 uL of 2.22×GzmB mix to establish inhibition (enzyme/inhibitor mixes were all prepared in granzyme B assay buffer and were incubated first at room temperature for 20 minutes, then at 30° C. for another 10 minutes). After incubation, 50 uL of this 2× enzyme/inhibitor mix was added to the corresponding coated well to initiate fibronectin cleavage (20 nM final granzyme B concentration, 8-point inhibitor dilution series starting at 50 uM). The assay was conducted at 30° C. in the TECAN plate reader (TECAN INFINITE® M1000 Pro), which was programmed to monitor the kinetic fluorescence polarization signal (filter set Ex/Em 470 nm/527 nm) with readings taken every minute, for 1 hour. Proteolytic activity was evaluated as the rate of fluorescence enhancement in the parallel emission over the linear range of the reaction. % Inhibition values were calculated from assay controls and the resulting date is shown in Table 8.

[4] = read-out: Solubility in aqueous PBS Buffer (1X, pH 7.4)
[5] = read-out: Solubility in aqueous PBS Buffer (1X, pH 7.4), ug/mL

Row | IC50 [1] [nM] | solubility at 24 h [2, 4] [µM] | solubility at 24 h [2, 5] [µg/mL] | inhibition at 0.62 µM [3] [%] | inhibition at 5.56 µM [3] [%] | inhibition at 50 µM [3] [%] | SMILES
1 | < 100 | 53 | 31 | 57 | 96 | 102 | CC[C@H](C)[C@H](NC(=O)Cc1csc2ccccc12)C(=O)NCC(=O)N1c2ccccc2C[C@H]1C(=O)NCc1nn[nH]n1 [Example A27, (2S)-1-{2-[(2S,3S)-2-[2-(1-Benzothiophen-3-Yl)Acetamido]-3-Methylpentanamido]Acetyl}-N-(2H-1,2,3,4-Tetrazol-5-Ylmethyl)-2,3-Dihydro-1H-Indole-2-Carboxamide]
2 | < 100 | > 750 | > 393 | 45 | 79 | 98 | CC[C@H](C)[C@H](NC(=O)Cc1nn[nH]n1)C(=O)NCC(=O)N1c2ccccc2C[C@H]1C(=O)NCc1nn[nH]n1 [Example A28, (2S)-1-{2-[(2S,3S)-3-Methyl-2-[2-(2H-1,2,3,4-Tetrazol-5-Yl)Acetamido]Pentanamido]Acetyl}-N-(2H-1,2,3,4-Tetrazol-5-Ylmethyl)-2,3-Dihydro-1H-Indole-2-Carboxamide]
